Laboratory results taken from patent US20190218508A1, “METHODS OF CELL SEPARATION” (CELLS4LIFE GROUP LLP, priority 2013, published 2019).

System: erythrocytes
Assay: Visual separation (sedimentation) of erythrocyte and nucleated cell fractions of blood samples
Type: cell-based
Conditions: for order from best to worst of each substance at the separation / separation of whole blood: Example 4; for order from best to worst of each substance at the separation: with 2.5% Dextran 70; for separation of whole blood: whole blood 1:1 with PBS composition of 2.5% Dextran 70 plus substance at 1-5%, 30 minutes room temperature
Experimental: Umbilical cord blood was collected into standard Baxter 250 ml (nominal) blood bags containing 35 ml of a citrate phosphate dextrose adenine (CPDA) anticoagulant solution.
A solution containing dextran and a further constituent selected from dimethyl sulphoxide (DMSO), dimethyl glycine (DMG), L-valine, L-proline, β-alanine, leucine, isoleucine and glycine, in phosphate-buffered saline (PBS), was prepared. This solution was added to a blood sample at a ratio of 1:1, this was then mixed thoroughly. Separation of the erythrocyte and nucleated cell fractions took place at room temperature within a time period of 15 or 30 minutes. […]
Whole blood samples were mixed with 1:1 with PBS compositions comprising 2.5% Dextran 70 plus DMSO, L-valine, L-proline, β-alanine, leucine, isoleucine, glycine and DMG. Each of the amino acids and the DMSO were tested at concentration levels of 1%, 1.5%, 2%, 2.5%, 3%, 3.5%, 4%, 4.5% and 5% in the PBS composition. After mixing, each sample was left for 30 minutes at room temperature. […]

[1] = dextran 70 Mw final 2.5% + substance final 2.5% w/v, after 30 minutes, data not shown

SMILES	order from best to worst of each substance at the separation	separation of erythrocytes and nucleated cells [1]	separation of erythrocytes and nucleated cells (dextran 500 Mw final 2.5% w/v + DMSO final 1% to 5% v/v, after 15 minutes and 30 minutes)	separation of the erythrocytes from the nucleated cells (umbilical cord blood 1:1, dextran 500 Mw final 2.5% w/v + DMSO final 2% or 2.5% v/v, 30 minutes)	separation of whole blood
CN(C)CC(=O)O [DMG, dimethyl glycine]	DMSO>L-valine>DMG>L-proline>β-alanine>Leucine/isoleucine/glycine	clear separation	–	–	–
C[S+](C)[O-] [DMSO, dimethyl sulphoxide]	DMSO>L-valine>DMG>L-proline>β-alanine>Leucine/isoleucine/glycine	–	clear separation	clear separation	–
O=C(O)[C@@H]1CCCN1 [L-proline]	DMSO>L-valine>DMG>L-proline>β-alanine>Leucine/isoleucine/glycine	little if any separation	–	–	did very little
CC(C)[C@H](N)C(=O)O [L-valine]	DMSO>L-valine>DMG>L-proline>β-alanine>Leucine/isoleucine/glycine	clear separation	–	–	performed better than DMG
NCC(=O)O [glycine]	DMSO>L-valine>DMG>L-proline>β-alanine>Leucine/isoleucine/glycine	little if any separation	–	–	almost total inactivity
CC[C@H](C)[C@H](N)C(=O)O [isoleucine]	DMSO>L-valine>DMG>L-proline>β-alanine>Leucine/isoleucine/glycine	little if any separation	–	–	almost total inactivity
CC(C)C[C@H](N)C(=O)O [leucine]	DMSO>L-valine>DMG>L-proline>β-alanine>Leucine/isoleucine/glycine	little if any separation	–	–	almost total inactivity
NCCC(=O)O [β-alanine]	DMSO>L-valine>DMG>L-proline>β-alanine>Leucine/isoleucine/glycine	little if any separation	–	–	did very little
